Assay results from patent publication US20130296273A1, “TREATMENT OF BLOOD CANCER” (Threshold Pharmaceuticals, Inc., priority 2010, published 2013).
“Also recorded” adds a separate entry of the source.

What was measured:
[1] = system: anti-apoptotic and pro-apoptotic Bcl-2 family proteins; assay: Immunoblotting of Bcl-2 family proteins, TH-302, bortezomib and combination; format: cell-based
Description: To further determine the mechanism of induction of apoptosis by this combination, the effect of TH-302, bortezomib and the combination on anti-apoptotic and pro-apoptotic Bcl-2 family proteins using immunoblotting was tested.

[2] = system: VEGFa secretion in 5T33vt cells; assay: VEGFa secretion; format: cell-based, murine
Description: (§1) TH-302 (5 μM) decreased the accumulation of HIF1α in hypoxic RPMI-8226 cells. VEGFa secretion was reduced by TH-302 in 5T33vt cells. *p<0.05, **p<0.01, ***p<0.001, compared to 20% O2 (n=3).
(§2) By employing a set of defined gas mixtures (0%, 1%, 1.25%, 1.5%, 2%, 3%, 20% O2) for drug treatment of the multiple myeloma cells, the oxygen concentration dependent activation of TH-302 was tested in RPMI-8226, LP-1, MMS1 and 5T33vt multiple myeloma cells. […] As the O2 concentration was reduced to 0%, the fraction of apoptotic cells increased to about 70-75%.

[3] = system: ALL; assay: Clinical administration of TH-302 in advanced leukemia, ALL patients; format: in vivo; settings: one ALL patient
Description: (§3) Clinical investigations were conducted to determine the safety, tolerability and clinically relevant disease responses of TH-302 in patients with acute leukemias, advanced phase chronic myelogenous leukemia (CML), high risk myelodysplastic syndromes, advanced myelofibrosis or relapsed/refractory chronic lymphocytic leukemia (CLL). TH-302 was administered as a 30 to 60 minute intravenous infusion daily for 5 days followed by 2 weeks off therapy. As needed, the 5 days of dosing could be spread out over 8 days. Patients who successfully completed a 3-week treatment cycle without evidence of significant treatment-related toxicity or progressive disease were continued on treatment and could receive treatment for up to six cycles.
(§4) Twenty-one patients have been treated in the study at TH-302 daily doses ranging from 120 mg/m^2 to 460 mg/m^2. All subjects had either AML or ALL and had generally received multiple prior therapies for their disease prior to enrolling for the study.

[4] = system: BCL-2, BCL-xL, cleaved caspase-3, 8, 9 and PARP; assay: Western blotting of apoptosis proteins; format: cell-based
[5] = system: Karpas-707, LP-1, MMS1, and RPMI-8226 cells; assay: Cell cycle analysis in multiple myeloma cell lines under hypoxia; format: cell-based, human; settings: hypoxic conditions; Karpas-707, LP-1, MMS1, RPMI-8226 cells
[6] = system: AML; assay: Clinical administration of TH-302 in advanced leukemia, AML patients; format: in vivo
Description: as §3, §4

[7] = system: cyclin D1/2/3, CDK4/6, p21cip-1, p27kip-1, pRb, CDK2 in RPMI-8226, LP-1, MMS1 and Karpas-707 multiple myeloma cells; assay: Western blotting of cell cycle machinery; format: cell-based, human
[8] = system: RPMI-8226, LP-1, MMS1 and 5T33vt multiple myeloma cells; assay: Oxygen concentration dependent activation of TH-302 (defined gas mixtures); format: cell-based, human and murine
Description: as §2

[9] = system: LP-1 cells; assay: Apoptosis in LP-1 cells; format: cell-based, human
Description: as §1, §2

[10] = system: HIF1α in RPMI-8226 cells; assay: HIF1α accumulation/expression in hypoxic cells; format: cell-based, human
Description: as §1, §2

[11] = system: human and murine multiple myeloma cells; assay: Flow cytometry analysis of apoptosis / toxicity in multiple myeloma cells; format: cell-based; settings: also RPMI-8226, 5T33vt, MMS1, Karpas-707 cells
Description: as §2

[12] = system: 5T33vt cells; assay: Cell cycle analysis in 5T33vt cells; format: cell-based, murine; settings: hypoxia selective manner
[13] = system: 5T33MMvv mouse; assay: 5T33MMvv mouse multiple myeloma model, prophylactic treatment for 3 weeks; format: in vivo; settings: for multiple myeloma cell apoptosis vs vehicle-treated mice: bone marrow
Description: 5T33MMvv mice were treated prophylactically with TH-302 for 3 weeks. From day 1, the following were observed. […] Therefore, the cancer cytotoxic effect of TH-302 was associated with the hypoxic nature of multiple myeloma cells in the bone marrow.

[14] = system: naive mice; assay: Toxicity in TH-302 treated naive mice; format: in vivo, mouse; settings: compared to vehicle-treated naive mice

## CC(C)C[C@H](NC(=O)[C@H](Cc1ccccc1)NC(=O)c1cnccn1)B(O)O [bortezomib, reference compound]
[1]
  anti-apoptotic Mcl-1: accumulated
  expression of anti-apoptotic Bcl-2 and Bcl-xL: decreased
  pro-apoptotic BH-3 member Noxa and cleavage of BID: induced

## Cn1c(COP(=O)(NCCBr)NCCBr)cnc1[N+](=O)[O-] [TH-302]
[2]
  VEGFa secretion: reduced; also recorded: significantly decreased
[3]; 170 mg/m^2/day, bone marrow biopsy after cycle 1
  disease response: partial response
[3]; 240 mg/m^2/day, after cycle 1
  disease response: stable disease
[3]; 330 mg/m^2/day, after cycle 1
  disease response: stable disease
[4]
  anti-apoptotic proteins BCL-2 and BCL-xL: down-regulation
  expression of cleaved proapoptotic protein caspase-3, 8, 9 and PARP: up-regulation
[5]
  cell cycle arrest: induced Go/G1 cell cycle arrest
[6]; one AML patient started at 120 mg/m^2/day
  platelet count: gradually improving
[6]; one AML patient started at 120 mg/m^2/day, after each cycle
  peripheral blast count: decreased
[6]; one AML patient, 240 mg/m^2/day, after cycle 1
  disease response: stable disease
[6]; two AML patients, 120 mg/m^2/day, iv daily for 5 days of 21 day cycle
  disease response: stable disease
[1]
  anti-apoptotic Mcl-1: decreased
  expression of anti-apoptotic Bcl-2 and Bcl-xL: decreased
  pro-apoptotic BH-3 member Noxa and cleavage of BID: induced
[7]
  CDK2 expression: remained undisturbed
  cyclin D1/2/3, CDK4/6, p21, p27 and pRb expression: down-regulating
[8]; O2 concentration reduced to 0%
  fraction of apoptotic cells: 70-75%
[8]; gas mixtures 0%, 1%, 1.25%, 1.5%, 2%, 3%, 20% O2
  threshold of activating TH-302: < 1.5 % O2
[9]; LP-1 cells under hypoxia, dose dependence
  apoptosis: triggered specific apoptosis in a dose-dependent manner
[9]; LP-1 cells, TH-302 5 μM
  apoptosis: induced apoptosis
[10]; hypoxic RPMI-8226 cells, TH-302 5 μM
  accumulation of HIF1α: decreased
[10]; hypoxic condition, similar in 5T33vt, LP-1, Karpas-707 cells
  expression of HIF1α: reduced
[11]; hypoxic conditions, flow cytometry
  apoptosis: induced dose-dependent apoptosis
[11]; normoxic conditions, even at high concentrations
  toxicity in normoxic conditions: very low toxicity
[12]
  cell cycle arrest: induced Go/G1 cell cycle arrest
[13]; 12.5 mg/kg
  microvessel density (MVD) in the bone marrow vs vehicle-treated mice: 19 % decrease
  paraprotein secretion vs vehicle-treated mice: 32 % decrease
  multiple myeloma cell apoptosis vs vehicle-treated mice: 2.5 fold
[13]; 25 mg/kg
  microvessel density (MVD) in the bone marrow vs vehicle-treated mice: 20 % decrease
  paraprotein secretion vs vehicle-treated mice: 77 % decrease
  multiple myeloma cell apoptosis vs vehicle-treated mice: 2.1 fold
[13]; 50 mg/kg
  microvessel density (MVD) in the bone marrow vs vehicle-treated mice: 26 % decrease
  paraprotein secretion vs vehicle-treated mice: 54 % decrease
  multiple myeloma cell apoptosis vs vehicle-treated mice: 3.1 fold
[14]
  toxicity in terms of body weight, HGB, RBC, WBC, HCT and MVD: no substantial toxicity
